By IC50 is commonly meant the point on the concentration scale where inhibition reaches its midpoint. The low end stands for greater potency in that assay, the high end for weaker potency in that assay. The term bioavailability denotes dose-corrected exposure relative to a reference, in per cent. Usually half-life stands for the time needed for the level to fall by half in the phase considered. A lower half-life goes with rapid decline. For orientation: solubility means the dissolved amount per volume that the medium holds. Read a high solubility as a readily soluble substance. As usually defined, the fraction unbound is free concentration divided by total concentration. Low values mean little free substance, high ones much free substance. A word on the clearance: it is the volume of plasma or blood freed of the substance per unit of time. High values mean a high capacity for elimination, low ones a low capacity for elimination. Usually inhibition stands for the share of the control response that was lost under treatment. A lower inhibition goes with a response near the control.

SMILES strings stand for the structures. Converted amounts (≈) assume the structure as drawn.

The target of data set [1] is T1, Nuclear receptor ROR-gamma (Homo sapiens, UniProt P51449).
T1 sequence (P51449 whole entry): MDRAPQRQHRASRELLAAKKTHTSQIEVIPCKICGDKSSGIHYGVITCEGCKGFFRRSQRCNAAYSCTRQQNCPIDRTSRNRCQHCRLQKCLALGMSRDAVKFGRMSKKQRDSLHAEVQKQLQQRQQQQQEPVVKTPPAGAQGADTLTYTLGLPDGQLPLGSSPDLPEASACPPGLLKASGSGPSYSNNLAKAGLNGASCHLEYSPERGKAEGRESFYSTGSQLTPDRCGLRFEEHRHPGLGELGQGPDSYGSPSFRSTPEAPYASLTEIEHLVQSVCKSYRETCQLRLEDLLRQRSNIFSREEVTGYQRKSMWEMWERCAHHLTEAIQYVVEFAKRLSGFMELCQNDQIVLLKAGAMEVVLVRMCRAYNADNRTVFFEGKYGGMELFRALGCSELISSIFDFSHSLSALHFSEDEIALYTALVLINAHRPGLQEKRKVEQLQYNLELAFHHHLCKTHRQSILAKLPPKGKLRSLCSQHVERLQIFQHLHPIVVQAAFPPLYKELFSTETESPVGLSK
The data set can be described thus: Inhibition of transactivation of Gal4-tagged RORgamma (unknown origin) transfected in human HG5LN cells incubated for 18 hrs by luciferase reporter gene assay. In kind it is cell-based. (In a reporter assay the amount or activity of a reporter protein is the signal.)

The nature of data set [2]: Oral bioavailability in rat. The note with it: in vivo. In kind it is ADME, organism-based.
Data set [3] in a line: Half life in rat. The note with it: in vivo. It counts as ADME.
Data set [4] can be described thus: Oral bioavailability in dog. In kind it is ADME, organism-based, Canis lupus familiaris. The note with it: in vivo.
Data set [5] in a line: Half life in dog. In kind it is ADME, Canis lupus familiaris. The note with it: in vivo.
A short description of data set [6]: Solubility of the compound. In kind it is physicochemical.
Data set [7] in a line: Unbound fraction in human plasma. It counts as ADME, cell-free.
The nature of data set [8]: cells. Conditions: Homo sapiens, PBMC.
Description: Inhibition of IL-17A secretion in human PBMC cells
Data set [9] is filed under the species Homo sapiens. Kind of data set: tissue or blood.
Description: Inhibition of IL-17A secretion in healthy human whole blood
For data set [10], the species on record is Homo sapiens. The data set can be described thus: tissue or blood. This is another data set of the same source.
Description: Inhibition of IL-17A secretion in psoriatic human whole blood
For data set [11], the species on record is Mus musculus. The data set can be described thus: animal or person. Conditions: po, read-out: INH.
Description: Anti-inflammatory activity against mouse EAE model assessed as reduction in EAE score at 100 mg/kg, po relative to control
Data set [12] concerns the target T1, Nuclear receptor ROR-gamma. The data set can be described thus: Inhibition of human GAL4-fused RORgamma LBD transfected in HEK293T cell measured after 24 hrs by luciferase reporter assay. In kind it is cell-based.
Data set [13] can be described thus: Suppression of Th17 polarization in human CD4+ T cells cultured under Th17-skewing conditions measured after 4 days.
Data set [14] is described as follows: Inhibition of SRC1 coactivator recruitment in human PBMC. It counts as functional, cell-based.
Data set [15] deals with Mus musculus. Kind of data set: Anti-inflammatory activity against psoriasis mouse model assessed as reduction in epidermal thickness treated topically. It counts as functional.
Data set [16] is filed under the species Homo sapiens. The data set can be described thus: Ex-vivo reduction in proinflammatory cytokine levels in psoriasis patient assessed as reduction in IL-17A level in skin tissue at 10 uM measured after 12 to 14 hrs by sRICA assay. It counts as functional. Conditions: Skin of body, time 12-14 hrs.
The species named for data set [17] is Homo sapiens. The data set can be described thus: Ex-vivo reduction in proinflammatory cytokine levels in psoriasis patient assessed as reduction in IL-17F level in skin tissue at 10 uM measured after 12 to 14 hrs by sRICA assay. In kind it is functional. Conditions: Skin of body, time 12-14 hrs.
Data set [18] is filed under the species Homo sapiens. The data set can be described thus: Ex-vivo reduction in proinflammatory cytokine levels in psoriasis patient assessed as reduction in IL-22 level in skin tissue at 10 uM measured after 12 to 14 hrs by sRICA assay. In kind it is functional. The note with it: Skin of body, time 12-14 hrs.
For data set [19], the species on record is Homo sapiens. The data set can be described thus: Ex-vivo reduction in proinflammatory cytokine levels in psoriasis patient assessed as reduction in IL-19 level in skin tissue at 10 uM measured after 12 to 14 hrs by sRICA assay. In kind it is functional. The note with it: Skin of body, time 12-14 hrs.
Data set [20] is described as follows: cells. Conditions: Homo sapiens, PBMC. The source holds these as a separate data set.
Description: Inhibition of IL-17 production in human PBMC
The nature of data set [21]: Oral bioavailability in mouse. In kind it is ADME, organism-based. The note with it: in vivo.
Data set [22] can be described thus: Half life in mouse. The note with it: in vivo. It counts as ADME, organism-based.
Data set [23] in a line: cells. The note with it: Homo sapiens, PBMC, 144 h.
Description: Decrease in Tc17 cell differentiation in CD8+ T cells from human PBMC cells cultured under the Tc17-skewing conditions measured after 6 days
For data set [24], the species on record is Homo sapiens. Kind of data set: tissue or blood. Conditions: 18 h.
Description: Reduction of IL17 level in human whole blood measured after 18 hrs by ELISA
For data set [25], the species on record is Homo sapiens. The data set can be described thus: tissue or blood. Conditions: 18 h. The source holds these as a separate data set.
Description: Reduction of IL17F level in human whole blood measured after 18 hrs by ELISA
The species entered for data set [26] is Homo sapiens. The data set can be described thus: tissue or blood. Conditions: 18 h. This is another data set of the same source.
Description: Reduction of IL22 level in human whole blood measured after 18 hrs by ELISA
In data set [27] the target is T2, Nuclear receptor ROR-gamma (Homo sapiens) (UniProt P51449).
T2 sequence (whole entry): T1 sequence (P51449 whole entry)
The data set can be described thus: Inhibition of human RORgamma by TR-FRET assay relative to control.

A short description of data set [28]: Inhibition of IL-17 production in human Th17 cells relative to control. In kind it is functional.
The nature of data set [29]: cells. The note with it: Homo sapiens, Th17.
The nature of data set [30]: Inhibition of IL-17A production in human PBMC by ELISA. It counts as functional, cell-based. For orientation: ELISA stands for enzyme-linked immunosorbent assay.
Data set [31] is described as follows: Inhibition of IL-17F production in human PBMC by ELISA. In kind it is functional, cell-based.
Data set [32] is described as follows: Inhibition of IL-21 production in human PBMC by ELISA. It counts as functional, cell-based.
Data set [33] can be described thus: Inhibition of IL-22 production in human PBMC by ELISA. It counts as functional, cell-based.
Data set [34] can be described thus: Plasma clearance in rat. In kind it is ADME.
Data set [35] addresses T2, Nuclear receptor ROR-gamma (Homo sapiens). The data set can be described thus: Inverse agonist activity at GAL4-RORgammat LBD (unknown origin) expressed in HEK293 cells at 1 uM measured after 24 hrs by nuclear receptor assay relative to control. It counts as cell-based.
Data set [36] in a line: cells. Conditions: Homo sapiens, PBMC, 96 h.
Description: Inhibition of IL17 production in human PBMC cells measured after 4 days by enzyme-linked immunosorbent assay
Data set [37] deals with T1, Nuclear receptor ROR-gamma. Kind of data set: Inverse agonist activity at human GAL4-RORgamma […] expressed in HEK293 cells measured after 24 hrs by ligand binding assay. In kind it is cell-based.

In the case of `Cc1ccc(N(CC(C)C)S(=O)(=O)c2ccc3c(c2)[nH]c(=O)n3CC2CCOCC2)c(C)c1`, half-maximal inhibition in data set [1] (IC50) required 19 nM.
With `CCS(=O)(=O)c1ccc(CNC(=O)c2cnc3c(c2)CN(C[C@H]2CC[C@H](C(F)(F)F)CC2)[C@H]3C(C)C)nc1`, the bioavailability came out at 64% in data set [2] and 66% in [4]. In addition, the results for the half-life in data set [3] and in data set [5] were 6 h and 15 h, respectively. Besides, in data set [6], the concentration in solution (solubility) came to 17 µM (≈ 9.4 µg/mL). The compound further yielded a fraction unbound in data set [7] of 0.005. Besides, the values for the IC50 in “cells [8]”, in the data set listed under Homo sapiens [9] and in the data set filed under Homo sapiens [10] were 21 nM, 207 nM and 250 nM, respectively. Moreover, the inhibition in vivo at 100 mg/kg in the data set listed under Mus musculus [11] was greater than 95%.
As for `COC(=O)[C@]12CCC(C)(C)CC1C1C(=O)C=C3[C@@]4(C)C=C(C#N)C(=O)[C@@](C)(O)[C@@H]4CC[C@@]3(C)[C@]1(C)CC2` (some centres undefined), the IC50 in [12] was found to be 115 nM; in data set [13], 18 nM.
Turning to `CC(=O)N1Cc2cc(S(C)(=O)=O)ccc2[C@@H]1C(=O)Nc1ccc(C(O)(C(F)(F)F)C(F)(F)F)cc1`, the results for the bioavailability in [2] and in data set [4] were 34% and 96%, respectively. The compound also yielded a solubility in data set [6] of 380 µM (≈ 199 µg/mL). The same compound had a fraction unbound in [7] of 0.16.
Take `Cc1cnccc1-c1nc(-c2ccccc2)c2c(n1)[C@]1(C)C=C(C#N)C(=O)[C@H](C)[C@H]1CC2`: the IC50 in data set [12] turned out to be 40 nM; in data set [13] it was 39 nM.
As to `CCc1ccc(N(CC(C)C)S(=O)(=O)c2ccc(OCC3CCOCC3)c(CO)c2)cc1` [GSK2981278], the IC50 in [14] is 20 nM; in “cells [20]”, 63 nM. In addition, in the data set on Mus musculus [15], the “inhibition (INH)” value was 23%. Further, the inhibition in vivo at 10 µM in the data set listed under Homo sapiens [16], in the data set filed under Homo sapiens [17], in the data set listed under Homo sapiens [18] and in the data set filed under Homo sapiens [19] was greater than 50% throughout.
In turn, `COc1ccc2c(n1)CCN(C(=O)[C@H]1C[C@@H](CC(=O)O)C1)[C@H]2C(=O)Nc1cc(F)c2c(c1)CCC2(C)C` yielded a bioavailability in [21] of 96%. This compound also gave a half-life in data set [22] greater than 4 h. The IC50 in the data set “cells [20]” was determined as 102 nM; in “cells [23]” it was 9.5 nM; in the data set listed under Homo sapiens [24], 120 nM; in the data set filed under Homo sapiens [25] it was 430 nM; in the data set filed under Homo sapiens [26], 1600 nM; in data set [13], 28 nM.
For `O=C(Nc1ccc2c(c1)CN(S(=O)(=O)c1cccc(C(F)(F)F)c1)CCO2)c1c(F)cccc1Cl`, the values for the Efficacy in [27] and in [28] were -69% and -73%, respectively. The same compound showed an IC50 in the data set “cells [29]” of 180 nM.
For the compound `O=S(=O)(c1ccc(Cl)cc1)N1CCC(Cn2ccc3cc(-c4cn[nH]c4)ccc32)CC1`, the concentration for half-maximal inhibition (IC50) in [30], in data set [31], in data set [32] and in [33] was less than 10000 nM each time.
For `O=S(=O)(c1ccccc1)N1CCC(Cn2ccc3nc(-c4cn[nH]c4)ccc32)CC1`, the IC50 in [30], in data set [31], in data set [32] and in data set [33] was less than 10000 nM each time.
In data set [34], `O=C(O)c1ccc(-c2nn(C(=O)c3c(Cl)cccc3C3(C(F)(F)F)CC3)c3cccnc23)c(F)c1` gave a clearance of 5 mL/min/kg.
In data set [35], `NC(=O)Cc1ccc(CNc2ncnc(N3CCOC[C@@H]3c3ccc(C(F)(F)F)cc3)c2F)cc1` had an inhibition of 80%.
In the data set “cells [36]”, `O=C(O)c1ccc(-c2nn(C(=O)c3c(Cl)cccc3C(F)(F)F)c3ccccc23)cc1` yielded an IC50 of 39.6 nM.
In data set [37], `CCOC(=O)CC1CN(Cc2ccc(-c3ccc(C(O)(C(F)(F)F)C(F)(F)F)cc3)cc2)CCN1Cc1ccncc1` (centres undefined) registered an IC50 of less than 1000 nM.

For the origin of these results see ChEMBL document CHEMBL5260836, “Combating Autoimmune Diseases With Retinoic Acid Receptor-Related Orphan Receptor-γ (RORγ or RORc) Inhibitors: Hits and Misses” (J Med Chem, 2018).
